Measurements from paper PMC4940736 (Scientific Reports, 2016).

Key:
[1] = molecular target: MARV NP (amino acids 19–370) (Lake Victoria marburgvirus, UniProt P27588); type: binding, Marburg virus
[2] = molecular target: EBOV NP (amino acids 36–351) (Zaire ebolavirus, UniProt P18272); type: binding, Ebola virus
EBOV NP (amino acids 36–351), sequence (P18272 36-351 limits assumed): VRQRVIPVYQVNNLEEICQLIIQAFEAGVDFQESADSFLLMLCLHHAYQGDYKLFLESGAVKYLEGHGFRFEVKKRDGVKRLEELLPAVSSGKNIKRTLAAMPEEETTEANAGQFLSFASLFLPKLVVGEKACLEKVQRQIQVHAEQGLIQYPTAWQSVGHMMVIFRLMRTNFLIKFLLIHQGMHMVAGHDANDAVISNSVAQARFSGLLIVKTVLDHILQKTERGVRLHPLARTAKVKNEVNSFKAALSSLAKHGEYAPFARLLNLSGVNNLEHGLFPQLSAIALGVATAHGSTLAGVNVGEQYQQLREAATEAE

MARV NP (amino acids 19–370), sequence (P27588 19-370 limits assumed): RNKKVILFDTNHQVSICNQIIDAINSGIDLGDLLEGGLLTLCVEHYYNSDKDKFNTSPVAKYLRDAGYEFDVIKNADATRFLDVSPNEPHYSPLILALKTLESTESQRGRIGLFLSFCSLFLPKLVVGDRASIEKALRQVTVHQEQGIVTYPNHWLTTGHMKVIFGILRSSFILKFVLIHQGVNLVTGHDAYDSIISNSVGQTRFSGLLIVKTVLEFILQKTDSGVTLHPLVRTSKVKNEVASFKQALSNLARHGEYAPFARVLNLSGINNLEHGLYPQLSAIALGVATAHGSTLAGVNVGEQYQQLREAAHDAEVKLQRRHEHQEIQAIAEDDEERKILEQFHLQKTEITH

Molecule | S/N AVE [1] | VIP [1] | S/N AVE [2] | VIP [2] | putative ligand in licorice crude extract screen [1] | putative ligand in licorice crude extract screen [2]
COc1ccc(-c2coc3cc(O[C@@H]4O[C@H](CO)[C@@H](O)[C@H](O)[C@H]4O)ccc3c2=O)cc1 [GC5, Ononin] | 1.76 | 1.28 | 1.46 | 1.09 | – | –
O=C(/C=C/c1ccc(O[C@@H]2O[C@H](CO)[C@@H](O)[C@H](O)[C@H]2O)cc1)c1ccc(O)cc1O [GC14, Isoliquiritin] | 1.73 | 2.12 | 1.22 | 1.29 | – | –
O=C1C[C@@H](c2ccc(O)cc2)Oc2cc(O)ccc21 [GC8, Liquiritigenin] | 1.50 | 0.65 | 1.04 | 0.47 | – | –
CC1(C)[C@@H](O[C@H]2O[C@H](C(=O)O)[C@@H](O)[C@H](O)[C@H]2O[C@@H]2O[C@H](C(=O)O)[C@@H](O)[C@H](O)[C@H]2O)CC[C@]2(C)[C@H]3C(=O)C=C4[C@@H]5C[C@@](C)(C(=O)O)CC[C@]5(C)CC[C@@]4(C)[C@]3(C)CC[C@@H]12 [GC6, Glycyrrhizin] | 0.96 | 1.39 | 1.15 | 5.23 | did not observe its direct binding | did not observe its direct binding
COc1ccc(-c2coc3cc(O)ccc3c2=O)cc1O [GC9, Calycosin] | 1.36 | 0.16 | 1.01 | 0.14 | – | –
glycyrrhetinic acid [GC7/10] | – | – | – | 1.44 | met the aforementioned thresholds | met the aforementioned thresholds
O=c1cc(-c2ccc(O)cc2)oc2c([C@@H]3OC[C@H](O)[C@H](O)[C@H]3O)c(O)c([C@@H]3O[C@H](CO)[C@@H](O)[C@H](O)[C@H]3O)c(O)c12 [GC3, Schaftoside] | 1.62 | 1.60 | 1.11 | 0.60 | – | –
C=CC(C)(C)c1cc(/C=C/C(=O)c2ccc(O)cc2)c(OC)cc1O [GC13, Licochalcone A] | 6.85 | 2.03 | 5.17 | 2.27 | met the aforementioned thresholds | met the aforementioned thresholds
O=C(/C=C/c1ccc(O)cc1)c1ccc(O[C@@H]2O[C@H](CO)[C@@H](O)[C@H](O)[C@H]2O)cc1O [GC4, Neoisoliquiritin] | 1.72 | 1.31 | 1.58 | 1.18 | – | –
